As a reminder, the IC50 is the midpoint of a concentration-inhibition curve. The low end stands for inhibition by little substance, the high end for a need for much substance.

The record followed here is publication PMC7993394 (Journal of Enzyme Inhibition and Medicinal Chemistry, 2021).

The target of the experiment is T1, BpHldC (Burkholderia pseudomallei, UniProt Q63XZ4).
T1 construct: gene BPSL0395
T1 sequence (Q63XZ4 1-161 limits assumed): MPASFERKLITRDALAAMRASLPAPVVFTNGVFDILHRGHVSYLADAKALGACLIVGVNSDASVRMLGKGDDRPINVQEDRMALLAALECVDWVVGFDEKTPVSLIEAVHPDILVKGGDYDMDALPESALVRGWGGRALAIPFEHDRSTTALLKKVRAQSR
As to the kind of experiment: biochemical.
The molecule `CCOC(=O)c1sc(NC(=O)CSc2nnc(Cc3ccccc3)o2)c(C#N)c1C` [compound 7929959, ethyl 5-({[(5-benzyl-1,3,4-oxadiazol-2-yl)thio]acetyl}amino)-4-cyano-3-methyl-2-thiophenecarboxylate] registered an IC50 of 10.9 µM.
The result for `CCOC(=O)c1sc(NC(=O)CSc2nnc(-c3ccc(Cl)cc3)o2)c(C#N)c1C` [compound 7933420, ethyl 5-[({[5–(4-chlorophenyl)-1,3,4-oxadiazol-2-yl]thio}acetyl)amino]-4-cyano-3-methyl-2-thiophene carboxylate] reads 17.5 µM; that for `CCOC(=O)c1sc(NC(=O)CSc2nnc(-c3ccccc3OCC)o2)c(C#N)c1C` [compound 7991890, ethyl 4-cyano-5-[({[5–(2-ethoxyphenyl)-1,3,4-oxadiazol-2-yl]thio}acetyl)amino]-3-methyl-2-thiophenecarboxylate], 47.1 µM.
